Experimental data published in US7745441B1, “Urokinase inhibitors” (Wilex AG, priority 1998, dated 2010).
Counter-ions that a name gives are not always drawn.

Biological target: T1, sc-urokinase (Homo sapiens, UniProt P00749)
T1 construct: purchased Ribosepharm GmbH, Haan, Germany
Test: Inhibition of urokinase (chromogenic substrate, Dixon Ki)
Type: biochemical
Conditions: Tris buffer pH 8.0, 25° C., substrate Pefachrome UK or Bz-βAla-Gly-Arg-pNA; mean of at least 3 determinations
Procedure: The Ki values were determined according to Dixon by linear regression using a computer program.

| SMILES | Ki [nM] |
| --- | --- |
| CC(C)c1cc(C(C)C)c(S(=O)(=O)NC(Cc2cccc(C(=N)N)c2)C(=O)N2CCN(C(=O)N(C)C)CC2)c(C(C)C)c1 (centres unmarked) | 2700 |
| CC1CCN(C(=O)C(Cc2cccc(C(=N)N)c2)NS(=O)(=O)c2c(C(C)C)cc(C(C)C)cc2C(C)C)CC1 (centres unmarked) | 2200 |
| CC(C)NC(=O)C1CCN(C(=O)C(Cc2cccc(C(=N)N)c2)NS(=O)(=O)c2c(C(C)C)cc(C(C)C)cc2C(C)C)CC1 (centres unmarked) | 4200 |
| CCOC(=O)C1CCN(C(=O)[C@H](Cc2cccc(C(=N)N)c2)NS(=O)(=O)c2ccc3ccccc3c2)CC1 | 3300 |
| N=C(N)c1cccc(C[C@H](NS(=O)(=O)c2ccc3ccccc3c2)C(=O)N2CCC(C(=O)OCc3ccccc3)CC2)c1 | 3900 |
| CC(C)c1cc(C(C)C)c(S(=O)(=O)NC(Cc2cccc(C(=N)N)c2)C(=O)N2CCCC(C(=O)OCc3ccccc3)C2)c(C(C)C)c1 (centres unmarked) | 1200 |
| CNC(=O)C1CCN(C(=O)C(Cc2cccc(C(=N)N)c2)NS(=O)(=O)c2c(C(C)C)cc(C(C)C)cc2C(C)C)CC1 (centres unmarked) | 4400 |
| CC(C)c1cc(C(C)C)c(S(=O)(=O)NC(Cc2cccc(C(=N)N)c2)C(=O)N2CCN(C(=O)OCc3ccccc3)CC2)c(C(C)C)c1 (centres unmarked) | 1900 |

Further lines, results first:

| Ki [nM] | SMILES |
| --- | --- |
| 720 | CCOC(=O)C1CCN(C(=O)C(Cc2cccc(C(=N)N)c2)NS(=O)(=O)c2c(C(C)C)cc(C(C)C)cc2C(C)C)CC1 (centres unmarked) |
| 540 | CCOC(=O)N1CCN(C(=O)C(Cc2cccc(C(=N)N)c2)NS(=O)(=O)c2c(C(C)C)cc(C(C)C)cc2C(C)C)CC1 (centres unmarked) |
| 790 | CC(C)OC(=O)N1CCN(C(=O)C(Cc2cccc(C(=N)N)c2)NS(=O)(=O)c2c(C(C)C)cc(C(C)C)cc2C(C)C)CC1 (centres unmarked) |
| 490 | CCOC(=O)N1CCN(C(=O)[C@H](Cc2cccc(C(=N)N)c2)NS(=O)(=O)c2c(C(C)C)cc(C(C)C)cc2C(C)C)CC1 [N-α-2,4,6-Triisopropylphenylsulfonyl-(L)-3-amidinophenylalanine-4-ethoxycarbonyl-piperazide hydrochloride] |
| 3500 | CC(=O)N1CCN(C(=O)C(Cc2cccc(C(=N)N)c2)NS(=O)(=O)c2c(C(C)C)cc(C(C)C)cc2C(C)C)CC1 (centres unmarked) |
| 1500 | CC(C)c1cc(C(C)C)c(S(=O)(=O)NC(Cc2cccc(C(=N)N)c2)C(=O)N2CCCC(C(=O)NCc3ccccc3)C2)c(C(C)C)c1 (centres unmarked) |
